# Key:
# human GPR40 receptor = human GPR40 receptor (Homo sapiens, UniProt O14842); assay: IP1 accumulation measurements using the IPOne assay system; type: cell-based; settings: 1321N1 cells stably expressing human GPR40 receptor; stimulated 1 h at 37° C.
# Protocol: IP1 is assayed according to the manufacturers description (Cisbio Bioassays, France). In brief, the assay is started by substitution of the culture medium by stimulation buffer (Hepes 10 mM, CaCl2 1 mM, MgCl2 0.5 mM, KCl 4.2 mM, NaCl 146 mM, glucose 5.5 mM and LiCl 50 mM, pH 7.4). Cells are stimulated for 1 h at 37° C., 5% CO2 by addition of the compounds that are diluted in stimulation buffer containing LiCl. Assays are stopped by adding HTRF-conjugates (IP1-d2 and Anti-IP1 cryptate Tb) and lysis buffer, provided by the manufacturer. After an incubation time of 1 h at room temperature plates are measured using an EnVision™, Perkin Elmer. The obtained fluorescence ratios at 665/615 […] are then used to calculate the pEC50 values using Assay Explorer 3.3 Software (Accelrys, Inc.) by interpolation using an IP1 reference curve and subsequent sigmoidal curve fitting allowing for a variable hill slope.
# [1] = Aqueous solubility (buffer vs acetonitrile/water, LC-UV); type: physicochemical; settings: kinetic from dmso stock, buffer pH 6.8, 24 h of shaking, DMSO concentration of 2.5%
# Protocol: The aqueous solubility of the compounds of the invention is determined by comparing the amount dissolved in buffer to the amount in an acetonitrile/water (1/1) solution. Starting from a 10 mM DMSO stock solution aliquots are diluted with acetonitrile/water (1/1) or buffer, respectively. After 24 h of shaking, the solutions are filtrated and analyzed by LC-UV. The amount dissolved in buffer is compared to the amount in the acetonitrile solution. Solubility is usually being measured from 0.001 to 0.125 mg/mL at a DMSO concentration of 2.5%. If more than 90% of the compound is dissolved in buffer, the value is marked with “>”.
# Sequence of human GPR40 receptor (O14842 whole entry): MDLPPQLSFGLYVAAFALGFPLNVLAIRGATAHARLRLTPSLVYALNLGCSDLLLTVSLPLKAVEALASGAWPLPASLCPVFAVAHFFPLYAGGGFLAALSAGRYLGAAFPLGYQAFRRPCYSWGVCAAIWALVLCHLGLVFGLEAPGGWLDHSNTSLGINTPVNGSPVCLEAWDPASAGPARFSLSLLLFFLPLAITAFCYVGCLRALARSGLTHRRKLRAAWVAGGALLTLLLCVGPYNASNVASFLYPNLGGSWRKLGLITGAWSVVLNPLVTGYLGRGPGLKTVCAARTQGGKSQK
EC50 (human GPR40 receptor),solubility at 24 h [1],Compound
16 nM,72 µg/mL,Cc1cc(OCCC(C)(C)O)cc(C)c1-c1ccc(F)c(CNc2cnc([C@H]3C[C@@H]3C(=O)O)cn2)c1 [Example 19]
6 nM,47 µg/mL,Cc1cc(-c2nnn(C)n2)cc(C)c1-c1ccc(F)c(CNc2cnc([C@H]3C[C@@H]3C(=O)O)cn2)c1 [Example 26]
,< 1 µg/mL,"Cc1cc(-c2nnn(C)n2)cc(C)c1-c1ccc(F)c2c1CC[C@H]2Oc1ccc([C@H]2C[C@@H]2C(=O)O)cc1 [Example 45 in WO 2013/178575, reference compound]"
